Reference: patent publication US12146004B2, “Polymyxin compounds and uses thereof” (priority 2014, dated 2024)
≈ marks a conversion by molar mass, not a printed value. Bridge positions count the residues as written; N and C are the ends. Square brackets hold non-standard residues; d marks the D form. Peptide text beside a SMILES is read from it. * marks the point of attachment. ξ: configuration not given here. X10 = NC[C@H](OCc1ccc(Cl)cc1)C(=O)*; X26 = NCC[C@H](OCC1CCCCC1)C(=O)*; dCha = N[C@H](CC1CCCCC1)C(=O)O; Thr(3ξ) = CC(O)[C@H](N)C(=O)O; X28 = NCCC(C(=O)*)c1ccccc1Cl; Dab = NCC[C@H](N)C(=O)O; Dap = NC[C@H](N)C(=O)O; X18 = CCCCC(CCN)C(=O)*

Columns and labels:
Type in all cases: cell-based
[1] = system: Klebsiella pneumoniae
Method in brief: (§1)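 Strain panels of up to nine per species, with resistant and Polymyxin-tolerant strains included, were used for susceptibility testing; read-out was MIC (μg/mL).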

[2] = system: Acinetobacter baumannii
Method in brief: as §1

[3] = system: Escherichia coli
Method in brief: as §1

[4] = system: Pseudomonas aeruginosa
Method in brief: as §1

Row | Compound | MIC K. pneumoniae 063 [1] [µg/mL] | MIC K. pneumoniae 065 [1] [µg/mL] | MIC K. pneumoniae ATCC 4352 [1] [µg/mL] | MIC K. pneumoniae ATCC 13882 [1] [µg/mL] | MIC A. baumanii 053 [2] [µg/mL] | MIC A. baumanii 056 [2] [µg/mL] | MIC A. baumanii ATCC BAA-747 [2] [µg/mL] | MIC A. baumanii NCTC 13424 [2] [µg/mL] | MIC E. coli 058 [3] [µg/mL] | MIC E. coli 061 [3] [µg/mL] | MIC E. coli ATCC 25922 [3] [µg/mL] | MIC E. coli NCTC 9001 [3] [µg/mL] | MIC P. aeruginosa 068 [4] [µg/mL] | MIC P. aeruginosa 070 [4] [µg/mL] | MIC P. aeruginosa ATCC 27853 [4] [µg/mL] | MIC P. aeruginosa CCUG 59347 [4] [µg/mL]
1 | CC(C)C[C@@H]1NC(=O)[C@@H](CC2CCCCC2)NC(=O)[C@H](CCN)NC(=O)[C@@H](NC(=O)[C@H](CN)NC(=O)[C@@H](NC(=O)[C@H](CN)OCc2ccc(Cl)cc2)[C@@H](C)O)CCNC(=O)[C@H]([C@@H](C)O)NC(=O)[C@H](CCN)NC(=O)[C@H](CCN)NC1=O [Example 81, (S)-3-amino-2-((4-chlorobenzyl)oxy) propanoyl L-Thr-L-Dap-polymyxin [D-cyclohexylalanine-6]heptapeptide] (X10-T[Dap][Dab][Dab][dCha]L[Dab][Dab]T; lactam 3-C) | 16 (≈ 13.7 µM) | 4 (≈ 3.43 µM) | 0.25 (≈ 0.214 µM) | 0.125 (≈ 0.107 µM) | 32 (≈ 27.4 µM) | 8 (≈ 6.86 µM) | 0.125 (≈ 0.107 µM) | 0.125 (≈ 0.107 µM) | 1 (≈ 0.857 µM) | 16 (≈ 13.7 µM) | 0.125 (≈ 0.107 µM) | 0.03 (≈ 0.0257 µM) | 2 (≈ 1.71 µM) | 2 (≈ 1.71 µM) | 0.125 (≈ 0.107 µM) | 0.25 (≈ 0.214 µM)
2 | CC(C)C[C@@H]1NC(=O)[C@@H](CC2CCCCC2)NC(=O)[C@H](CCN)NC(=O)[C@@H](NC(=O)[C@H](CN)NC(=O)[C@@H](NC(=O)C(CCN)Cc2ccccc2F)[C@@H](C)O)CCNC(=O)[C@H]([C@@H](C)O)NC(=O)[C@H](CCN)NC(=O)[C@H](CCN)NC1=O (single isomer, unassigned; isomer 2) [Example 65, 4-amino-2-(2-fluorobenzyl) butanoyl L-Thr-L-Dap-polymyxin [D-cyclohexylalanine]-6 heptapeptide. Isomer 2] | 16 (≈ 13.9 µM) | 2 (≈ 1.74 µM) |  | 0.25 (≈ 0.218 µM) | >64 | >64 | 0.25 (≈ 0.218 µM) | 1 (≈ 0.871 µM) | 4 (≈ 3.48 µM) | 16 (≈ 13.9 µM) | 0.25 (≈ 0.218 µM) |  | 2 (≈ 1.74 µM) | 2 (≈ 1.74 µM) | 0.5 (≈ 0.435 µM) | 0.5 (≈ 0.435 µM)
3 | CC(C)C[C@@H]1NC(=O)[C@@H](CC2CCCCC2)NC(=O)[C@H](CCN)NC(=O)[C@@H](NC(=O)[C@H](CN)NC(=O)[C@@H](NC(=O)CCC(N)c2ccccc2)[C@@H](C)O)CCNC(=O)[C@H]([C@@H](C)O)NC(=O)[C@H](CCN)NC(=O)[C@H](CCN)NC1=O (single isomer, unassigned; isomer 1) [Example 60, 4-amino-4-phenylbutanoyl L-Thr-L-Dap-polymyxin [D-cyclohexylalanine]-6 heptapeptide. Isomer 1] |  |  |  | 0.5 (≈ 0.448 µM) |  |  | 0.5 (≈ 0.448 µM) | 1 (≈ 0.896 µM) | 16 (≈ 14.3 µM) |  | 0.5 (≈ 0.448 µM) |  |  |  |  | 1 (≈ 0.896 µM)
4 | CC(C)C[C@@H]1NC(=O)[C@@H](CC2CCCCC2)NC(=O)[C@H](CCN)NC(=O)[C@@H](NC(=O)[C@H](CCN)NC(=O)[C@@H](NC(=O)C(CCN)c2ccccc2Cl)[C@@H](C)O)CCNC(=O)[C@H]([C@@H](C)O)NC(=O)[C@H](CCN)NC(=O)[C@H](CCN)NC1=O (stereo partly drawn) [Example 77, 4-amino-2-(2-chlorophenyl) butanoyl polymyxin [D-cyclohexylalanine]-6 nonapeptide] (X28-T[Dab][Dab][Dab][dCha]L[Dab][Dab]T; lactam 3-C) |  | 8 (≈ 6.87 µM) |  | 0.5 (≈ 0.429 µM) |  |  | 1 (≈ 0.858 µM) | 0.5 (≈ 0.429 µM) | 8 (≈ 6.87 µM) |  | 0.25 (≈ 0.215 µM) |  |  |  | 0.5 (≈ 0.429 µM) | 0.5 (≈ 0.429 µM)
5 | CC(C)C[C@@H]1NC(=O)[C@@H](CC2CCCCC2)NC(=O)[C@H](CCN)NC(=O)[C@@H](NC(=O)[C@H](CN)NC(=O)[C@@H](NC(=O)[C@H](CCN)OCC2CCCCC2)[C@@H](C)O)CCNC(=O)[C@H]([C@@H](C)O)NC(=O)[C@H](CCN)NC(=O)[C@H](CCN)NC1=O [Example 84, (S)-4-amino-2-(cyclohexyl-methoxy) butanoyl L-Thr-L-Dap-polymyxin [D-cyclohexylalanine-6]heptapeptide.] (X26-T[Dap][Dab][Dab][dCha]L[Dab][Dab]T; lactam 3-C) | 32 (≈ 27.8 µM) | 4 (≈ 3.47 µM) |  | 0.25 (≈ 0.217 µM) | >32 | 32 (≈ 27.8 µM) | 0.25 (≈ 0.217 µM) | 0.25 (≈ 0.217 µM) | 8 (≈ 6.94 µM) | 8 (≈ 6.94 µM) | 0.125 (≈ 0.108 µM) |  |  | 8 (≈ 6.94 µM) | 0.25 (≈ 0.217 µM) | 0.5 (≈ 0.434 µM)
6 | CCC(CC)CC(CCN)C(=O)N[C@H](C(=O)N[C@@H](CCN)C(=O)N[C@H]1CCNC(=O)[C@H]([C@@H](C)O)NC(=O)[C@H](CCN)NC(=O)[C@H](CCN)NC(=O)[C@H](CC(C)C)NC(=O)[C@@H](CC2CCCCC2)NC(=O)[C@H](CCN)NC1=O)[C@@H](C)O (single isomer, unassigned; isomer 2) [Example 92, 2-(2-aminoethyl)-4-ethylhexanoyl polymyxin [D-cyclohexylalanine]-6 nonapeptide. Isomer 2] |  | 8 (≈ 7.03 µM) |  | 0.25 (≈ 0.22 µM) |  |  | 0.125 (≈ 0.11 µM) | 0.125 (≈ 0.11 µM) | 4 (≈ 3.51 µM) |  | 0.06 (≈ 0.0527 µM) |  |  |  | 0.25 (≈ 0.22 µM) | 1 (≈ 0.878 µM)
7 | CCCCC(CCN)C(=O)N[C@H](C(=O)N[C@@H](CCN)C(=O)N[C@H]1CCNC(=O)[C@H]([C@@H](C)O)NC(=O)[C@H](CCN)NC(=O)[C@H](CCN)NC(=O)[C@H](CC(C)C)NC(=O)[C@@H](CC2CCCCC2)NC(=O)[C@H](CCN)NC1=O)C(C)O (stereo partly drawn) [Example 40, 2-(2-aminoethyl) hexanoyl [D-cyclohexylalanine]-6 nonapeptide.] (X18-[Thr(3ξ)][Dab][Dab][Dab][dCha]L[Dab][Dab]T; lactam 3-C) | 16 (≈ 14.4 µM) | 2 (≈ 1.8 µM) |  | 0.25 (≈ 0.225 µM) | >64 | 64 (≈ 57.6 µM) | 0.06 (≈ 0.054 µM) | 0.125 (≈ 0.113 µM) | 8 (≈ 7.2 µM) | 16 (≈ 14.4 µM) | 0.125 (≈ 0.113 µM) | 0.03 (≈ 0.027 µM) | 4 (≈ 3.6 µM) | 8 (≈ 7.2 µM) | 0.5 (≈ 0.45 µM) | 0.5 (≈ 0.45 µM)
